Measured values from US7728040B1, “Polyamine conjugates as selective NMDA inhibitors and anti-cancer drugs” (University of Central Florids Research Foundation, Inc., priority 2002, dated 2010).

Columns and labels:
[1] = Metabolic de-alkylation to homospermidine in treated cells; format: in vitro ADME; settings: cells treated with compound
Description: N-Alkylpolyamines can be broken down into their de-alkylated components by cellular metabolic pathways. For example, a N-alkyl-4,4-triamine ([…]2, where R is alkyl) can be converted into homospermidine, H2N(CH2)4NH(CH2)4NH2.

L1210 cells = experiment: Cytotoxicity in L1210 cells; format: cell-based; settings: Mus musculus; L1210 cells, no DFMO; read-out: L1210 IC50
L1210 cells + DFMO = experiment: Cytotoxicity in L1210 cells pretreated with DFMO; format: cell-based, mouse; settings: Mus musculus; L1210 cells pretreated with DFMO; read-out: L1210 + DFMO IC50
CHO cells = experiment: Cytotoxicity in CHO cells (active polyamine transporter); format: cell-based, Chinese hamster
polyamine transporter = experiment: Ki, affinity for the polyamine transporter in L1210 cells; format: binding, mouse
Experimental: Biological Evaluation. Three cell lines were chosen for bioassay. L1210 (mouse leukemia) cells were selected for comparison with the published IC50 and Ki values determined for a variety of polyamine substrates. In this regard both Ki and IC50 values were measured in this line for comparison purposes. Chinese hamster ovary (CHO) cells were chosen along with a mutant cell line (CHO-MG) in order to comment on polyamine transporter affinity and cell selectivity. The CHO-MG cell line is polyamine-transport deficient and was isolated after chronic selection for growth resistance to methylglyoxalbis (guanylhydrazone). For the purposes of this study, the CHO-MG cell line represents cells with limited polyamine transport activity. In contrast, the parent CHO cell line illustrates cell types with active polyamine transport. Comparison of efficacy in these two lines provided an important screen to detect conjugate delivery via the polyamine transporter, PAT. For example, a conjugate with high utilization of the transporter would be very toxic to CHO cells, but less so to CHO-MG cells. Therefore, IC50 determination in these two CHO lines provided a relative ranking of delivery via the PAT.

CHO-MG cells = experiment: Cytotoxicity in CHO-MG cells (polyamine-transport deficient); format: cell-based, Chinese hamster; settings: Cricetulus griseus, polyamine-transport deficient line, read-out: CHO-MG IC50

Structure (SMILES): Cl.Cl.Cl.NCCCCN(CCCCN)Cc1c2ccccc2cc2ccccc12 [Compound 8e, N-(4-Amino-butyl)-N-anthracen-9-ylmethyl-butane-1,4-diamine, trihydrochloride]
- formation of homospermidine in treated cells (de-alkylation) [1]: did not form homospermidine
- IC50 (L1210 cells): 0.3 µM
- IC50 (L1210 cells + DFMO): 0.15 µM
- IC50 (CHO cells; Cricetulus griseus, CHO, active polyamine transporter, read-out: CHO IC50): 0.45 µM
- CHO-MG/CHO IC50 ratio (CHO cells; selectivity for cells with active polyamine transporter, trihydrochloride): 148
- Ki (polyamine transporter): 1.8 µM
- IC50 (CHO-MG cells): 66.7 µM
